Patent US20110076293A1, “TRIPTOLIDE DERIVATIVES FOR MODULATION OF APOPTOSIS AND IMMUNOSUPPRESSION” (priority 2002, published 2011)
Where two headings read alike, the source gives them in different places.

Assays:
[1] = system: IL-2 production in Jurkat human T lymphocyte cells; assay: IL-2 production assay for activity of compounds incubated with human serum
Experimental: Several compounds of formula I were analyzed for their capacity to inhibit IL-2 production in Jurkat human T lymphocyte cells, after incubation with pooled human serum for 48 hours at 37° C. (see Example 20). An ester prodrug, triptolide-14-succinate, designated PG490-88, was included for comparison.
The IC50 values (column 1) are calculated directly from the data in each experiment. The % conversion values (column 2) are calculated as the percent of the IC50 value produced by triptolide, designated PG490, incubated in the same plasma (i.e. in the same experiment).
A. IL-2 production assay for activity of compounds incubated with human serum. Test samples were diluted to 1 mM in complete tissue culture medium. […] Cells from an exponentially expanding culture of the Jurkat human T lymphocyte cell line (#TIB-152 obtained from American Type Culture Collection, Manassas, Va.) were harvested, washed once by centrifugation and dilution in complete tissue culture medium, and diluted to a concentration of 2×10^6 cells/ml. A volume of 50 μl of Jurkat cells (1×10^5 cells) was added to wells containing 100 μl of the diluted compounds, 50 μl of PMA (10 ng/ml) was added to each well, and the plates were incubated at 37° C. in a 5% CO2 incubator. After 24 hours, the plates were centrifuged to pellet the cells, 150 μl of supernatant was removed from each well, and the samples were stored at −20° C. The stored supernatants were analyzed for human IL-2 concentration using the Luminex 100 (Luminex Corporation, Austin, Tex.), Luminex microspheres coupled with anti-IL-2 capture antibody, and fluorochrome-coupled anti-IL-2 detection antibody. The data were expressed as ng/ml of IL-2.
(§1) B. Comparison of bioactivities after incubation of compounds in human serum. The data were plotted as the concentration of compound incubated in serum versus IL-2 concentration. The concentration of compound inducing a 50% decrease in the IL-2 concentration (IC50) was calculated from these dose response curves. […] This percentage conversion was used to compare the bioactivity of various compounds after incubation in human serum.

[2] = system: Jurkat human T lymphocyte cell line; assay: Apoptosis assay (Annexin V) of compounds incubated with human serum; details: for EC50: Homo sapiens, Jurkat
Experimental: (§2) Compounds of formula I, as shown in Table 1 above and in the Examples, were assayed for their capacity to induce apoptosis in cells from the Jurkat human T lymphocyte cell line, after incubation with pooled human serum for varying periods of time at 37° C. (see Example 19). An ester prodrug, triptolide-14-succinate, designated PG490-88, was included for comparison. The extent of conversion to triptolide after such incubation was also independently determined by HPLC analysis.
The ED50 values (column 3) are calculated directly from the data in each experiment, and the % conversion values (column 4) are calculated as percent of the ED50 value produced by triptolide, designated PG490, incubated in the same plasma (i.e. in the same experiment).
A. Incubation of compounds with human serum. Pooled human serum was stored in aliquots at −80° C. Test compounds were added at 20 mM to thawed human serum in 1.5 ml microfuge tubes and incubated at 37° C. in a water bath for varying periods of time. The test samples were placed on ice until dilution for the bioassay. Controls consisted of the compounds incubated in complete tissue culture medium (RPMI 1640 medium plus 5% heat-inactivated fetal calf serum, 1% HEPES, 1% pen/strep, 1% glutamine) rather than human serum.
B. Apoptosis assay of compounds incubated with human serum. Test samples were diluted to 1 mM in complete tissue culture medium. Aliquots were placed in microculture plates and serial dilutions were prepared so that the final concentration would encompass the range of 1 to 10,000 nM with half-log increments. Cells from an exponentially expanding culture of the Jurkat human T lymphocyte cell line (#TIB-152 obtained from American Type Culture Collection, Manassas, Va.) were harvested, washed once by centrifugation and dilution in complete tissue culture medium, and diluted to a concentration of 1×10^6 cells/ml. A volume of 100 μl of Jurkat cells (1×10^5 cells) was added to wells containing 100 μl of the diluted compounds, and the plates were incubated at 37° C. in a 5% CO2 incubator. After 24 hours, the plates were centrifuged to pellet the cells, and the cells were washed twice with 2% heat-inactivated fetal calf serum in PBS. To each well, 500 ul of binding buffer was added according to the Annexin V assay procedure (BioVision, Inc., Mountain View, Calif.). Next, 5 μl of the fluorescein isothiocyanate (FITC) conjugate of Annexin V (BioVision, Inc.) was added to each well, followed by 5 minutes of incubation in the dark. In some assays, propidium iodide (BioVision, Inc.) was added at this stage to check for necrotic cells. The contents of the wells were individually transferred into test tubes, and apoptosis was analyzed using a FACSCalibur flow cytometer (BD Immunocytometry Systems, San Jose, Calif.). Cells positive for Annexin V binding were considered to be apoptotic, and the data were calculated as percent apoptotic cells.
as §1, with “C.” for “B.”, “percent apoptotic cells.” for “IL-2 concentration.”, “inducing” for “inducing a”, “apoptosis (ED50)” for “decrease in the IL-2 concentration (IC50)”

[3] = in vitro; details: human, plasma
Experimental: as §2
Prodrug conversions to triptolide as determined independently by HPLC are given in […].

[4] = 1 h, read-out: ED50 (nM) in apoptosis assay after incubation with serum, incubation time in human serum 1 hour, 37° C.
[5] = 48 h, read-out: ED50 (nM) in apoptosis assay after incubation with serum, incubation time in human serum 48 hours, 37° C.
[6] = incubation time in human serum 1 hour
[7] = incubation time in human serum 48 hours

## CC(C)[C@]12O[C@H]1[C@@H]1O[C@]13[C@]1(O[C@H]1C[C@H]1C4=C(CC[C@@]13C)C(=O)OC4)[C@@H]2OC(=O)OCCN(C)C [PG682, Triptolide 14-Dimethylaminoethyl Carbonate]
[1]; IL-2 production in Jurkat cells after incubation with pooled human serum for 48 hours at 37° C.
  IC50: 23 nM
[1]; percent of the IC50 value produced by triptolide (PG490) in the same experiment, human serum 48 hours
  Conversion (%): 78%
[2]; [4]
  EC50: 66 nM
[2]; [5]
  EC50: 32 nM
[2]; [6]
  Conversion, as relative ED50 compared to triptolide (%): 76%
[2]; [7]
  Conversion, as relative ED50 compared to triptolide (%): 146%
[3]
  half-life: 17 min

## CCOC(=O)O[C@@H]1[C@@]2(C(C)C)O[C@H]2[C@@H]2O[C@]23[C@]12O[C@H]2C[C@H]1C2=C(CC[C@@]13C)C(=O)OC2 [PG674, Triptolide 14-Ethyl Carbonate]
[2]; 0.5 h, read-out: ED50 (nM) in apoptosis assay after incubation with serum, incubation time in human serum 0.5 hours, 37° C.
  EC50: 27 nM
[2]; [4]
  EC50: 55 nM
[2]; 24 h, read-out: ED50 (nM) in apoptosis assay after incubation with serum, incubation time in human serum 24 hours, 37° C.
  EC50: 60 nM
[2]; [5]
  EC50: 65 nM
[2]; incubation time in human serum 0.5 hours
  Conversion, as relative ED50 compared to triptolide (%): 188%
[2]; [6]
  Conversion, as relative ED50 compared to triptolide (%): 98%
[2]; incubation time in human serum 24 hours
  Conversion, as relative ED50 compared to triptolide (%): 97%
[2]; [7]
  Conversion, as relative ED50 compared to triptolide (%): 100%
[3]
  half-life: 12 min
